Laboratory results taken from the CheMixHub ionic liquid set.

Experiment: xn = mol fraction of the nth substance listed
Conditions: 298.15 K, 101 kPa

CCCC[n+]1ccccc1C.F[B-](F)(F)F + O
Conditions	electrical conductivity [S/m]
x1 = 0.0002702	0.13
x1 = 0.0004161	0.188
x1 = 0.0005097	0.233
x1 = 0.0007329	0.319
x1 = 0.0008948	0.368
x1 = 0.001084	0.463
x1 = 0.001244	0.516
x1 = 0.001427	0.588
x1 = 0.001581	0.634
x1 = 0.001768	0.707
x1 = 0.001923	0.76
x1 = 0.002048	0.787
x1 = 0.00219	0.841
x1 = 0.002294	0.878
x1 = 0.002423	0.917
x1 = 0.002448	0.92
x1 = 0.002543	0.96
x1 = 0.002708	1
x1 = 0.002791	1.03
